Read-outs that look alike come from different tables or passages of the source.
Assays:
[1] = system: COV434 cells; assay: MTT cell viability assay; format: cell-based; settings: Homo sapiens
Experimental: (§1) Experiments were performed using the following cell lines: Ishikawa, Hec50co, COV434, and HFF-1. The Ishikawa cell line (RRID: CVCL_2529) was established from an endometrial adenocarcinoma. The Hec50co cell line (RRID: CVCL_4Y59) consists of poorly differentiated endometrial tumor cells isolated from a patient with advanced disease. Both the Ishikawa and Hec50co cell lines were kindly provided by Dr. Kim K. Leslie (The University of New Mexico Health Sciences Center, Albuquerque, NM, USA). COV434 (RRID: CVCL_2010) were initially isolated from a patient diagnosed with a granulosa cell tumor but were recently classified as cells from a small-cell carcinoma of the ovary, hypercalcemic type.The COV434 cells were purchased from the European Collection of Authenticated Cell Cultures (ECACC) (#07071909). HFF-1 (RRID: CVCL_3285) is an immortalized human foreskin fibroblasts cell line, obtained from the American Type Culture Collection (ATCC), which was used as control, as they are non-tumorous cells. The Ishikawa and Hec50co cells were maintained in Dulbecco’s Modified Eagle Medium/F12 (DMEM/F12) supplemented with 5% Foetal Bovine Serum (FBS). COV434 cells were maintained in DMEM/F12 supplemented with 10% FBS. HFF-1 were maintained in Roswell Park Memorial Institute 1640 (RPMI 1640) supplemented with 10% FBS. All mediums were supplemented with 1% AB-AM and all cells were kept at 37 °C with 5% CO2. The treatment with the compounds was done in the respective cell medium supplemented with 2% FBS and 24 h after platting the cells in the culture medium with 5% FBS to allow their adherence.
(§2) The Ishikawa, Hec50co, COV434, and HFF-1 cell lines were plated at a density of 5 × 10^4 cells/well in transparent 96-well plates. After 24 h, the cells were treated with Mito6_TPP, Mito6_picol., or Mito6_isoq. (0.01–100 μM) and incubated at 37 °C with 5% CO2 for 24, 48, or 72 h. […] The conditions of the methylthiazolyldiphenyl-tetrazolium bromide (MTT) assay were adapted from the work of Banerjee et al.. Briefly, MTT was added to a final concentration of 0.5 mg/mL, and the cells were incubated for 3 h at 37 °C with 5% CO2. After the 3 h, purple MTT formazan crystals were dissolved by agitation for 15 min in a solution of DMSO/isopropanol (ratio 3:1) and quantified spectrophotometrically at 540 nm. The neutral red (NR) assay conditions were based on the work developed by Repetto et al.. Briefly, after the incubation time, cells were incubated with NR at 40 μg/mL in an FBS-free cell medium for 3 h. The cells were then incubated with a solution of 50% ethanol (96% v/v), 49% deionized water, and 1% glacial acetic acid, with shaking for 15 min. The NR extracted from the cells was measured at 540 nm. The LDH cytotoxicity assay was not performed on the HFF-1 cells due to the lack of evidence of cell death at the concentrations tested. After the incubation time, this assay was performed using a Thermo Scientific Pierce LDH Cytotoxicity Assay Kit according to the manufacturer’s instructions. For all assays, the absorbance was read using a BioTek Synergy HTX Multi-Mode Microplate Reader equipped with BioTek Gen5 Data Collection and Analysis Software (BioTek Instruments, Winooski, VT, USA).
(§3) Data were evaluated using the one- or two-way analysis of variance (ANOVA) test followed by Bonferroni’s test for multiple comparisons. The data presented was expressed as mean ± SEM (Standard Error of the Mean) of a minimum of three and a maximum of seven independent experiments performed in triplicate. Values of p < 0.05 were considered statistically significant. Half of the maximal effective concentration (EC50) values were estimated by interpolation of dose-response curves and reported as a mean with a 95% confidence interval (CI 95%). All statistical analysis was performed using GraphPad Prism Software 8.0 (GraphPad Software, Inc., San Diego, CA, USA). […]

[2] = system: HFF-1 cells; assay: MTT cell viability assay; format: cell-based; settings: Homo sapiens
Experimental: as §1, §2, §3

[3] = system: Hec50co cells; assay: MTT cell viability assay; format: cell-based; settings: Homo sapiens
Experimental: as §1, §2, §3

[4] = system: Ishikawa cells; assay: MTT cell viability assay; format: cell-based; settings: Homo sapiens
Experimental: as §1, §2, §3

[5] = system: COV434 cells; assay: Mitochondrial membrane potential (Δψm) assessment, DiOC6 probe; format: cell-based, human; settings: COV434, 48 h; 5 μM Mito6_TPP, 20 μM Mito6_picol., 10 μM Mito6_isoq.
Experimental: (§4) The Ishikawa, Hec50co, COV434, and HFF-1 cell lines were plated at a density of 5 × 10^4 cells/well in black 96-well plates. After 24 h, the cells were treated with Mito6_TPP (5 μM), Mito6_picol. (20 μM), or Mito6_isoq. (10 μM) and incubated at 37 °C with 5% CO2 for 48 h. The Δψm study was adapted from the work of Sivandzade et al.. The mitochondrial membrane-depolarizing agent carbonyl cyanide m-chlorophenylhydrazone (CCCP) (50 μM) was used as the positive control, being added to the cells for 20 min prior to the addition of the probe DiOC6 (100 nM) for 30 min at 37 °C in the dark. The fluorescence was then measured using a BioTek Synergy HTX Multi-Mode Microplate Fluorimeter equipped with BioTek Gen5 Data Collection and Analysis Software (BioTek Instruments, Winooski, VT, USA) (excitation: 488 nm; emission: 525 nm).

[6] = system: Hec50co cells; assay: as above; format: cell-based, human; settings: 48 h, 5 μM Mito6_TPP, 20 μM Mito6_picol., 10 μM Mito6_isoq.
Experimental: as §4

[7] = system: Ishikawa cells; assay: as above; format: cell-based, human; settings: 48 h, 5 μM Mito6_TPP, 20 μM Mito6_picol., 10 μM Mito6_isoq.
Experimental: as §4

[8] = COV434, 24 hours of incubation, read-out: EC50 (decrease of viability), MTT assay
[9] = COV434, 48 h of incubation, read-out: EC50 (decrease of viability), MTT Assay
[10] = COV434, 72 hours of incubation, read-out: EC50 (decrease of viability), MTT assay
[11] = 24 h, read-out: EC50 (decrease of viability), MTT assay
[12] = 48 h, read-out: EC50 (decrease of viability), MTT Assay
[13] = 72 h, read-out: EC50 (decrease of viability), MTT assay
[14] = HFF-1, 48 h of incubation, read-out: EC50 (decrease of viability), MTT Assay
[15] = Hec50co, 24 hours of incubation, read-out: EC50 (decrease of viability), MTT assay
[16] = Hec50co, 48 h of incubation, read-out: EC50 (decrease of viability), MTT Assay
[17] = Hec50co, 72 hours of incubation, read-out: EC50 (decrease of viability), MTT assay
[18] = 24 hours of incubation, read-out: EC50 (decrease of viability), MTT assay
[19] = 48 h of incubation, read-out: EC50 (decrease of viability), MTT Assay
[20] = 72 hours of incubation, read-out: EC50 (decrease of viability), MTT assay

| Structure (SMILES) | EC50 [1, 8] | EC50 [1, 9] | EC50 [1, 10] | Mitochondrial membrane potential (Δψm) change vs untreated cells [5] | Mitochondrial membrane potential (Δψm) change vs untreated cells [6] | Mitochondrial membrane potential (Δψm) change vs untreated cells [7] | EC50 [2, 14] | EC50 [3, 15] | EC50 [3, 16] | EC50 [3, 17] | EC50 [4, 18] | EC50 [4, 19] | EC50 [4, 20] | other results |
| --- | --- | --- | --- | --- | --- | --- | --- | --- | --- | --- | --- | --- | --- | --- |
| O=C(/C=C/c1ccc(O)c(O)c1)NCCCCCCCCCC[P+](c1ccccc1)(c1ccccc1)c1ccccc1 [Mito6_TPP] | 4.64 µM | 2.37 µM | 0.577 µM | significant decrease | significant decrease | significant decrease | – | – | – | – | – | – | – | EC50 ([2]; HFF-1, 24 h, read-out: EC50 (decrease of viability), MTT assay): > 100 µM; EC50 ([2]; HFF-1, 48 h, read-out: EC50 (decrease of viability), MTT Assay): 44.5 µM; EC50 ([2]; HFF-1, 72 h, read-out: EC50 (decrease of viability), MTT assay): 37 µM; EC50 [3, 11]: 7.75 µM; EC50 [3, 12]: 1.87 µM; EC50 [3, 13]: 0.847 µM; EC50 [4, 11]: 9.14 µM; EC50 [4, 12]: 2.45 µM; EC50 [4, 13]: 0.925 µM |
| O=C(/C=C/c1ccc(O)c(O)c1)NCCCCCCCCCC[n+]1ccc2ccccc2c1 [Mito6_isoq.] | 29.5 µM | 7.16 µM | 3.16 µM | significant decrease | significant decrease | significant decrease | > 100 µM | 19 µM | 9.55 µM | 6.59 µM | 29.9 µM | 15.4 µM | 7.16 µM | – |
| Cc1cc[n+](CCCCCCCCCCNC(=O)/C=C/c2ccc(O)c(O)c2)cc1 [Mito6_picol.] | 53.2 µM | 15.9 µM | 6.6 µM | decrease | decrease only in the Ishikawa and COV434 cells | decrease | > 100 µM | 27.3 µM | 13.8 µM | 17.2 µM | 42.9 µM | 23.6 µM | 10.8 µM | – |

Reference: article PMC9030827, “In Vitro Effects of Mitochondria-Targeted Antioxidants in a Small-Cell Carcinoma of the Ovary of Hypercalcemic Type and in Type 1 and Type 2 Endometrial Cancer” (Biomedicines, 2022)
